Read-outs that look alike come from different tables or passages of the source.
Target: CFTR (Homo sapiens, UniProt P13569)
Assay: Membrane Potential Dye, Enteroid Assay B
Type: cell-based
Summary of the method: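 Human intestinal enteroid cells exposed to compound 18-24 h at 37 °C, then loaded with methyl oxonol membrane-potential dye plus CaCC blockers. Chloride transport triggered in chloride-free buffer with 10 μM forskolin, 100 μM IBMX, 300 nM Compound III; fluorescence read 15 min, expressed as % of triple-corrector/potentiator combination control.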

[1] = Table 10, read-out: Ent. B EC50

CFTR, sequence (P13569 with tags, fused parts or gaps DEL508-508): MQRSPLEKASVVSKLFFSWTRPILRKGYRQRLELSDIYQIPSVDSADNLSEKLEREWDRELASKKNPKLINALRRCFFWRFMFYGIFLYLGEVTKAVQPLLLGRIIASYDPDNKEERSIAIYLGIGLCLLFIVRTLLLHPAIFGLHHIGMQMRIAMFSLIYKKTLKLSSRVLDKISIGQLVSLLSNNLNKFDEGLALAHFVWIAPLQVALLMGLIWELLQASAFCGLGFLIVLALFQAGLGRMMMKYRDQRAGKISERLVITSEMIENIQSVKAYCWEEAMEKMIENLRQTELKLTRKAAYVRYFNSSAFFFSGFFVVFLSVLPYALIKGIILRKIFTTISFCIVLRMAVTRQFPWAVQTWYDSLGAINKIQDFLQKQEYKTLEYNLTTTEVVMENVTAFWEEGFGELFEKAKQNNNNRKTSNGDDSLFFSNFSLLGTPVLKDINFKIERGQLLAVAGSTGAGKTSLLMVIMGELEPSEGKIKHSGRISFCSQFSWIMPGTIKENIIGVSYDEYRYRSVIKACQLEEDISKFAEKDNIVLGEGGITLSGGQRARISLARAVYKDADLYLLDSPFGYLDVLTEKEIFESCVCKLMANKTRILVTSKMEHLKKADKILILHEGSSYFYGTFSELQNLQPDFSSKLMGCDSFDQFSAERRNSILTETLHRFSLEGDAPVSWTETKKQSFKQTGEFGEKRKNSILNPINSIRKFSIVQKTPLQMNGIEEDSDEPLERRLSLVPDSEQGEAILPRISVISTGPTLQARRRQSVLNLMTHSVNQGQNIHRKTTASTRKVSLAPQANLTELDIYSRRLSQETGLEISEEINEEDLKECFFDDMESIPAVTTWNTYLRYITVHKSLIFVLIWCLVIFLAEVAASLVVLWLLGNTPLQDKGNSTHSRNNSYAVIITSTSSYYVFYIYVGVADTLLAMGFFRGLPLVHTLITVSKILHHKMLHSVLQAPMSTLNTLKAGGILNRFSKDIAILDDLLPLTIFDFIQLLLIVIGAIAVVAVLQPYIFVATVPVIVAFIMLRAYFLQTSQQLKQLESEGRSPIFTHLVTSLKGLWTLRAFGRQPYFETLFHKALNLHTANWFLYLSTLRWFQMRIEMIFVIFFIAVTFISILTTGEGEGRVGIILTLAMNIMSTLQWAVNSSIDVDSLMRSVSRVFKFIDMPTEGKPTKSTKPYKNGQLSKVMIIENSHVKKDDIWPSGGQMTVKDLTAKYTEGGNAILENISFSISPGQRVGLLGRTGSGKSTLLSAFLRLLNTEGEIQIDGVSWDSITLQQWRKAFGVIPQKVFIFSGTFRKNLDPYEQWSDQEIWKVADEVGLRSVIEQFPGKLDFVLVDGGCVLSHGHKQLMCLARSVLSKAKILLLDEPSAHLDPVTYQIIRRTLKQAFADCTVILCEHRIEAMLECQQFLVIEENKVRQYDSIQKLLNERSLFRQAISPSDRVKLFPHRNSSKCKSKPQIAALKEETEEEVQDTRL

Compound	Ent. B Max Activity (%) (Table 9)	EC50 (Table 9, read-out: Ent. B EC50) [nM]	also measured
Cc1cccc(C)c1-c1cc2nc(n1)NS(=O)(=O)c1cccc(c1)C(=O)N([C@H]1C[C@@H](N3CCCCC3)C1)[C@H](CC(C)C)CO2 [Compound 388]	+++ (+++ is >60%)	< 1000	–
Cc1cccc(C)c1-c1cc2cc(n1)NS(=O)(=O)c1cccc(c1)C(=O)N(C1CC3(CC3)C1)[C@H](CC(C)C)CO2 [Compound 389]	–	–	Ent. B Max Activity (%): +++ (+++ is >60%); EC50 (read-out: Ent. B EC50): < 1000 nM
Cc1cccc(C)c1-c1cc2nc(n1)NS(=O)(=O)c1cccc(n1)C(=O)N(C1CC3(CCN(C)CC3)C1)[C@H](CC(C)C)CO2 [Compound 390]	–	–	Ent. B Max Activity (%): +++ (+++ is >60%); EC50 (read-out: Ent. B EC50): < 1000 nM
COC(=O)N1CCC2(CC1)CC(N1C(=O)c3cccc(n3)S(=O)(=O)Nc3nc(cc(-c4c(C)cccc4C)n3)OC[C@H]1CC(C)C)C2 [Compound 391]	–	–	Ent. B Max Activity (%): +++ (+++ is >60%); EC50 (read-out: Ent. B EC50): < 1000 nM
Cc1cccc(C)c1-c1cc2nc(n1)NS(=O)(=O)c1cccc(n1)C(=O)N(C1CC3(CCNCC3)C1)[C@H](CC(C)C)CO2 [Compound 392]	–	–	Ent. B Max Activity (%): +++ (+++ is >60%); EC50 (read-out: Ent. B EC50): 1000 to 3000 nM
CC(C)C[C@@H]1COc2cc(C3CCCCC3(C)C)nc(n2)NS(=O)(=O)c2cccc(c2)C(=O)N1C1CC2(CCN(C)CC2)C1 (stereo partly drawn) [Compound 394]	–	–	Ent. B Max Activity (%): +++ (+++ is >60%); EC50 (read-out: Ent. B EC50): 1000 to 3000 nM
CC(C)(C)C[C@@H]1COc2cc([C@H]3CCCCC3(C)C)nc(n2)NS(=O)(=O)c2cccc(c2)C(=O)N1C1CC2(CC2)C1 [Compound 397]	–	–	Ent. B Max Activity (%): ++ (++ is 30-60%); EC50 (read-out: Ent. B EC50): < 1000 nM
CCC(O)(CC)[C@H]1CC2(C[C@H](N3C(=O)c4cccc(c4)S(=O)(=O)Nc4nc(cc(-c5c(C)cccc5C)n4)OC[C@H]3CC(C)(C)C)C2)C1 (stereo partly drawn) [Compound 408]	–	–	Ent. B Max Activity (%) (Table 10): +++ (+++ is >60%); EC50 [1]: < 1000 nM
CCC(O)(CC)[C@H]1CC2(C[C@H](N3C(=O)c4cccc(c4)S(=O)(=O)Nc4nc(cc(-c5c(C)cccc5C)n4)OC[C@H]3CC(C)(C)C)C2)C1 (stereo partly drawn) [Compound 409]	–	–	Ent. B Max Activity (%) (Table 10): +++ (+++ is >60%); EC50 [1]: < 1000 nM
Cc1cccc(C)c1-c1cc2nc(n1)NS(=O)(=O)c1cccc(n1)C(=O)N([C@H]1C[C@@H](C(C)(C)O)C1)[C@H](CC(C)(C)C)CO2 [Compound 410]	–	–	Ent. B Max Activity (%) (Table 10): +++ (+++ is >60%); EC50 [1]: < 1000 nM
Cc1cccc(C)c1-c1cc2nc(n1)NS(=O)(=O)c1cccc(n1)C(=O)N(C1CC3(CC(C(=O)N(C)C)C3)C1)[C@H](CC(C)(C)C)CO2 (stereo partly drawn) [Compound 414]	–	–	Ent. B Max Activity (%) (Table 10): +++ (+++ is >60%); EC50 [1]: < 1000 nM
Cc1cccc(C)c1-c1cc2nc(n1)NS(=O)(=O)c1cccc(n1)C(=O)N(C1CC3(CC(C(=O)N(C)C)C3)C1)[C@H](CC(C)(C)C)CO2 (stereo partly drawn) [Compound 415]	–	–	Ent. B Max Activity (%) (Table 10): +++ (+++ is >60%); EC50 [1]: < 1000 nM
Cc1cccc(C)c1-c1cc2nc(n1)NS(=O)(=O)c1cccc(c1)C(=O)N(C1CC3(CCN(C(=O)C(C)C)CC3)C1)[C@H](CC(C)(C)C(F)(F)F)CO2 [Compound 416]	–	–	Ent. B Max Activity (%) (Table 10): +++ (+++ is >60%); EC50 [1]: < 1000 nM
CCC(=O)N1CCC2(CC1)CC(N1C(=O)c3cccc(c3)S(=O)(=O)Nc3nc(cc(-c4c(C)cccc4C)n3)OC[C@H]1CC(C)(C)C(F)(F)F)C2 [Compound 417]	–	–	Ent. B Max Activity (%) (Table 10): +++ (+++ is >60%); EC50 [1]: < 1000 nM
COC(=O)NC1CC(N2C(=O)c3cccc(c3)S(=O)(=O)Nc3nc(cc(-c4c(C)cccc4C)n3)OC[C@H]2CC(C)(C)C(F)(F)F)C1 (stereo partly drawn) [Compound 418]	+++ (+++ is >60%)	< 1000	–
COC(=O)NC1CC(N2C(=O)c3cccc(c3)S(=O)(=O)Nc3nc(cc(-c4c(C)cccc4C)n3)OC[C@H]2CC(C)(C)C(F)(F)F)C1 (stereo partly drawn) [Compound 419]	–	–	Ent. B Max Activity (%) (Table 10): +++ (+++ is >60%); EC50 [1]: < 1000 nM
CC(=O)N1CCC2(CC1)CC(N1C(=O)c3cccc(c3)S(=O)(=O)Nc3nc(cc(-c4c(C)cccc4C)n3)OC[C@H]1CC(C)(C)C(F)(F)F)C2 [Compound 420]	+++ (+++ is >60%)	< 1000	–
Cc1cccc(C)c1-c1cc2nc(n1)NS(=O)(=O)c1cccc(c1)C(=O)N(C1CC3(CCN(C(=O)OC(C)C)CC3)C1)[C@H](CC(C)(C)C(F)(F)F)CO2 [Compound 421]	+++ (+++ is >60%)	< 1000	–
COCCN1CCC2(CC1)CC(N1C(=O)c3cccc(n3)S(=O)(=O)Nc3cc(cc(-c4c(C)cccc4C)n3)OC[C@H]1CC(C)C)C2 [Compound 422]	+++ (+++ is >60%)	–	–

Compound	Ent. B Max Activity (%) (Table 9)	EC50 (Table 9, read-out: Ent. B EC50) [nM]	also measured
Cc1ccc(F)c(C)c1-c1cc2nc(n1)NS(=O)(=O)c1cccc(c1)C(=O)N(C1CC3(CC3)C1)[C@H](CC(C)C)CO2 [Compound 424]	+++ (+++ is >60%)	< 1000	–
Cc1cccc(C)c1-c1cc2cc(n1)NS(=O)(=O)c1cccc(n1)C(=O)N(C1CC3(CC3)C1)[C@H](CC1(C(F)(F)F)CC1)CO2 [Compound 425]	+++ (+++ is >60%)	< 1000	–
Cc1cccc(C)c1-c1cc2nc(n1)NS(=O)(=O)c1cc(n(C)n1)C(=O)N(C1CC3(C1)CC(C(C)(C)O)C3)[C@H](CC(C)(C)C)CO2 (stereo partly drawn) [Compound 436]	–	–	Ent. B Max Activity (%) (Table 10): +++ (+++ is >60%); EC50 [1]: < 1000 nM
Cc1cccc(C)c1-c1cc2nc(n1)NS(=O)(=O)c1cccc(c1)C(=O)N(C1CC3(CCN(C(=O)OC(C)(C)C)CC3)C1)[C@H](CC(C)(C)C)CO2 [Compound 437]	–	–	Ent. B Max Activity (%): ++ (++ is 30-60%); EC50 (read-out: Ent. B EC50): < 1000 nM
Cc1cccc(C)c1-c1cc2nc(n1)NS(=O)(=O)c1cccc(c1)C(=O)N(C1CCN(C)CC1)CC(CC(C)C)CO2 (stereo not drawn) [Compound 440]	++ (++ is 30-60%)	1000 to 3000	–
Cc1cccc(C)c1-c1cc2nc(n1)NS(=O)(=O)c1cccc(c1)C(=O)N(C1CCN(C)CC1)CC(CC(C)C)CO2 (stereo not drawn) [Compound 441]	+++ (+++ is >60%)	< 1000	–
Cc1cccc(C)c1-c1cc2nc(n1)NS(=O)(=O)c1cccc(c1)C(=O)N(C1CCC3(CC1)CC3)C[C@@H](C)O2 [Compound 442]	–	–	Ent. B Max Activity (%): ++ (++ is 30-60%); EC50 (read-out: Ent. B EC50): < 1000 nM
COC(=O)NC1CC2(C1)CC(N1C(=O)c3cccc(c3)S(=O)(=O)Nc3nc(cc(-c4c(C)cccc4C)n3)O[C@@H](C)[C@H]1C)C2 (stereo partly drawn) [Compound 443]	–	–	Ent. B Max Activity (%) (Table 10): ++ (++ is 30-60%); EC50 [1]: < 1000 nM
CC(=O)N1CC2(CC(N3C(=O)c4cccc(c4)S(=O)(=O)Nc4nc(cc(-c5c(C)cccc5C)n4)OC[C@H]3CC3(C(F)(F)F)CC3)C2)C1 [Compound 452]	+++ (+++ is >60%)	< 1000	–
COC(=O)N1CC2(CC(N3C(=O)c4cccc(c4)S(=O)(=O)Nc4nc(cc(-c5c(C)cccc5C)n4)OC[C@H]3CC3(C(F)(F)F)CC3)C2)C1 [Compound 453]	+++ (+++ is >60%)	< 1000	–
CO[C@@H](C)C(=O)N1CCC2(CC1)CC(N1C(=O)c3cccc(c3)S(=O)(=O)Nc3nc(cc(-c4c(C)cccc4C)n3)OC[C@H]1CC(C)C)C2 [Compound 454]	+++ (+++ is >60%)	< 1000	–
Cc1cccc(C)c1-c1cc2nc(n1)NS(=O)(=O)c1cccc(c1)C(=O)N(C1CC3(CCN(C(=O)[C@@H](C)O)CC3)C1)[C@H](CC(C)C)CO2 [Compound 455]	+++ (+++ is >60%)	< 1000	–
Cc1cccc(C)c1-c1cc2nc(n1)NS(=O)(=O)c1cccc(c1)C(=O)N(C1CC3(CCN(C(=O)[C@H](C)O)CC3)C1)[C@H](CC(C)C)CO2 [Compound 456]	+++ (+++ is >60%)	< 1000	–
CO[C@H](C)C(=O)N1CCC2(CC1)CC(N1C(=O)c3cccc(c3)S(=O)(=O)Nc3nc(cc(-c4c(C)cccc4C)n3)OC[C@H]1CC(C)C)C2 [Compound 457]	+++ (+++ is >60%)	< 1000	–
Cc1cccc(C)c1-c1cc2nc(n1)NS(=O)(=O)c1cccc(c1)C(=O)N(C1CC3(CCN(C(=O)COC(C)C)CC3)C1)[C@H](CC(C)C)CO2 [Compound 458]	+++ (+++ is >60%)	< 1000	–
COCC(=O)N1CCC2(CC1)CC(N1C(=O)c3cccc(c3)S(=O)(=O)Nc3nc(cc(-c4c(C)cccc4C)n3)OC[C@H]1CC(C)C)C2 [Compound 459]	+++ (+++ is >60%)	< 1000	–
Cc1cccc(C)c1-c1cc2nc(n1)NS(=O)(=O)c1cccc(c1)C(=O)N(C1CC3(CCN(C(=O)COC(C)(C)C)CC3)C1)[C@H](CC(C)C)CO2 [Compound 460]	+++ (+++ is >60%)	< 1000	–
Cc1cccc(C)c1-c1cc2nc(n1)NS(=O)(=O)c1cccc(c1)C(=O)N(C1CC3(CC(N(C)C)C3)C1)[C@H](CC(C)(C)C)CO2 (stereo partly drawn) [Compound 461]	+++ (+++ is >60%)	< 1000	–
Cc1cccc(C)c1-c1cc2nc(n1)NS(=O)(=O)c1cccc(c1)C(=O)N(C1CC3(CC(N(C)C)C3)C1)[C@H](CC(C)(C)C)CO2 (stereo partly drawn) [Compound 462]	+++ (+++ is >60%)	< 1000	–
